pIC50, pKd: −log10 of the molar value. Like-named read-outs stand apart in the source and are kept apart here.
How the values were obtained:
[1] = biological target: KAA; format: binding; conditions: fluorometric titration in aqueous buffer at neutral pH; read-out: Dissociation constant Kd, KAA
[2] = biological target: RGD; format: binding; conditions: fluorometric titration in aqueous buffer at neutral pH; read-out: Dissociation constant Kd, RGD
[3] = test system: differentiated rat pheochromocytoma (PC-12) cells; test: Self-toxicity in differentiated PC-12 cells (MTT and/or LDH); conditions: MTT and/or LDH assays, highest concentration tested 100 μM
Method: (§1) The highest concentration tested was 100 μM. Non-toxic compounds then were tested for their ability to inhibit the toxicity of 10 μM Aβ42 in the same assay. The parent compound 1 was used as a control in both cases.

[4] = test system: Aβ42-induced toxicity; test: Inhibition of Aβ42 toxicity in differentiated PC-12 cells (MTT/LDH); format: cell-based, rat; conditions: Rattus norvegicus, PC-12, read-out: Inhibition of Aβ42 toxicity, IC50 (MTT)
Method: as §1

[5] = PK screening in mice, three routes, two time points; conditions: male, mouse, in vivo
Method: Each compound was administered to the mice at 2 mg/kg intravenously (I.V.), 2 mg/kg subcutaneously (S.C.), or 10 mg/kg orally (P.O.).

[6] = Full 24-h PK profile; format: in vivo, mice; conditions: 24-h profile; for Brain AUC / AUC / half-life: 7 time points; for AUC / half-life / bioavailability: mouse, in vivo; for AUC: read-out: Blood AUC; for bioavailability: read-out: Blood Bioavailability
Method: Based on the 2-time-point screen results, a full 24-h PK profile has been obtained for compounds 13 and 14. In these experiments, the blood and brain levels were measured at 7 time points—0.3, 0.6, 1, 2, 4, 8, and 24 h. Data for 1 are given for reference.

[7] = CellTiter-Glo cell viability assay on Vero E6 cells; format: cell-based; conditions: African green monkey, CellTiter-Glo (ATP)
Method: (§2) FIG. 1, panels A and B, illustrates the results of a cell viability assay with the new molecular tweezers. Indicated concentrations of compounds were added to the cells and incubated for 2 days before […]-GLO® assay (Promega) was performed on TZM-bl cells (HIV-1 target cells) (panel A), or on Vero E6 (ZIKV target cells) (panel B). The experiment was performed in triplicates, raw data were normalized to untreated cells. Data represent mean±SD (n=3).
(§3) To determine the maximally tolerated concentrations of these derivatives in cell culture and to exclude cytotoxic effects in viral infectivity assays, a CellTiter-Glo® assay (Promega) was performed. This assay quantifies the amount of intracellular ATP. The compounds were directly added to TZM-bl cells (a HeLa derived HIV-1 reporter cell line TZM-bl; 20,000 cells/well, FIG. 1, panel A) or Vero E6 cells (a Zika virus (=ZIKV) permissive cell line; 12,000 cells/well, FIG. 1, panel B). Cell viability was quantified two days later by measuring ATP levels.

[8] = CellTiter-Glo cell viability assay on TZM-bl cells; format: cell-based; conditions: human, CellTiter-Glo (ATP)
Method: as §2, §3

[9] = test system: ZIKV strain MR766; test: ZIKV infectivity (MTT) assay on Vero E6 cells; format: cell-based, Zika virus
Method: FIG. 2, panels A and B, illustrates the results of a ZIKV infectivity (MTT) assay with the new molecular tweezers on Vero E6 cells. […] After 3-4 days, the ZIKV induced cytopathic effect was quantified using the MTT assay.
20-μl of MTT solution (5 mg/ml in PBS) were added to 200 μl cells. Following a 3-h incubation at 37° C., cell-free supernatants were discarded and formazan crystals were dissolved in 100 μl of a 1:2 mixture of dimethyl sulfoxide and ethanol. Absorption was measured at 490 nm and baseline corrected at 650 nm using a VMax Kinetic ELISA microplate reader (Molecular Devices). To determine infection rates, sample values were subtracted from untreated control set to 100%. Error bars are standard deviations of replicates (FIG. 2, panels A and B). […] The selectivity index (SI) (Table 12) is calculated for each compound by dividing its CC50 value by the IC50 value.

[10] = test system: CCR5-tropic HIV-1 strain; test: HIV-1 infectivity assay on TZM-bl cells; format: cell-based
Method: FIG. 3, panels A and B, illustrates the results of an HIV-1 infectivity assay with new tweezers on TZM-bl cells. CR5-tropic HIV-1 strain (20 ng/ml p24 antigen) was incubated for 10 min at 37° C. with indicated concentrations of the different compounds before these mixtures were used to infect TZM-bl cells. Three days later, infection rates were determined by measuring β-galactosidase activity.
Infection rates were determined 3 days post infection by detecting β-galactosidase activity in cellular lysates using the Tropix Gal-Screen kit (Applied Biosystems) and an Orion microplate luminometer (Berthold). Values represent % infection (mean) compared to buffer control (FIG. 3, panels A and B). […] Half-maximal inhibitory concentrations (IC50 values), were calculated. […] The selectivity index (SI) is calculated for each compound by dividing its CC50 value by its IC50 value (Table 12).

[11] = test system: enveloped viruses such as HIV-1 and HSV-2; conditions: cited from earlier work
[12] = CC50 value divided by IC50 value

For O=P(O)(O)Oc1c2c(c(OP(=O)(O)O)c3c1C1CC3c3cc4c(cc31)C1CC4c3ccccc31)C1CC2c2cc3c(cc21)C1CC3c2ccccc21 [Compound 1, CLR01, reference compound], the pKd [1] was 4.52, the pKd [2] was 4.07 and the Self-toxicity [3] was “Non-toxic”. For the same compound, the pIC50 [4] was 4.16, the bioavailability at 40 min ([5]; 2 mg/kg) was 101% and the bioavailability at 4 h ([5]; 2 mg/kg) was 86.6%. The bioavailability at 40 min ([5]; 10 mg/kg) was 0.5%, the bioavailability at 4 h ([5]; 10 mg/kg) was 0% and the Kp at 40 min ([5]; iv, 2 mg/kg) was 0. For the same compound, the Kp at 4 h ([5]; iv, 2 mg/kg) was 0.002, the Kp at 40 min ([5]; po, 10 mg/kg) was 0 and the Kp at 4 h ([5]; po, 10 mg/kg) was 0. The Kp at 40 min ([5]; sc, 2 mg/kg) was 0, the Kp at 4 h ([5]; sc, 2 mg/kg) was 0 and the LogBB ([6]; I.V.) was −3.62. The “Brain AUC” value ([6]; I.V.) was 1.63, the “Brain AUC” value ([6]; P.O.) was 0 and the LogBB ([6]; S.C.) was 0.34. For the same compound, the AUC ([6]; iv, I.V.) was 6.8 µg·h/mL, the half-life ([6]; iv, I.V., read-out: Blood T1/2 (converted)) was 1.8 h and the half-life ([6]; iv, I.V., read-out: Brain T1/2 (converted)) was 4 h. The AUC ([6]; po, P.O.) was 0.00894 µg·h/mL, the half-life ([6]; po, P.O., read-out: Blood T1/2 (converted)) was 1.3 h and the bioavailability ([6]; po, P.O.) was 0.1%. The AUC ([6]; sc, S.C.) was 4.74 µg·h/mL, the half-life ([6]; sc, S.C., read-out: Blood T1/2 (converted)) was 1.05 h and the half-life ([6]; sc, S.C., read-out: Brain T1/2 (converted)) was 0.9 h. The bioavailability ([6]; sc, S.C.) was 69.7%, the CC50 at 2 days [7] was 584 µM and the CC50 at 2 days [8] was 964 µM. For the same compound, the “SI (Vero E6/ZIKV)” value [9, 12] was 13, the pIC50 ([9]; Zika virus, Vero C1008, read-out: IC50 ZIKV) was 4.34 and the “SI (TZM-bl/HIV-1)” value [10, 12] was 26. The pIC50 ([10]; Human immunodeficiency virus 1, TZM-bl, read-out: IC50 HIV-1) was 4.43, the “concentrations required to inhibit enveloped viruses such as HIV-1 and HSV-2” value ([11]; Lump et al. (2015) eLife, 4: e05397) was “median micromolar range” and the “antiviral activity in the presence of serum” value ([11]; Rocker et al. (2018) Antiviral Res. 152: 26-35) was “inhibited”.

— patent US20210122771A1, “NEW MOLECULAR TWEEZERS AGAINST NEUROLOGICAL DISORDERS AND VIRAL INFECTIONS” (The Regents of the University of California, priority 2018, published 2021)
